As usually defined, the EC50 is the concentration at which the effect is half-maximal. Low readings indicate greater potency, high ones weaker potency.

The target in assay [1] is T1, P2Y12 receptor (P2Y12R) (Homo sapiens, UniProt Q9H244). The assay can be described thus: inhibition of forskolin-induced cAMP formation. Type of assay: cell-based. For orientation: Changes in cAMP serve as a functional read-out for many G protein-coupled receptors.
Assay [2] addresses T1, P2Y12 receptor (P2Y12R). The assay can be described thus: cAMP accumulation assay, rightward shift of 2-methylthio-ADP curve. Type of assay: cell-based.

T1 sequence (Q9H244 whole entry): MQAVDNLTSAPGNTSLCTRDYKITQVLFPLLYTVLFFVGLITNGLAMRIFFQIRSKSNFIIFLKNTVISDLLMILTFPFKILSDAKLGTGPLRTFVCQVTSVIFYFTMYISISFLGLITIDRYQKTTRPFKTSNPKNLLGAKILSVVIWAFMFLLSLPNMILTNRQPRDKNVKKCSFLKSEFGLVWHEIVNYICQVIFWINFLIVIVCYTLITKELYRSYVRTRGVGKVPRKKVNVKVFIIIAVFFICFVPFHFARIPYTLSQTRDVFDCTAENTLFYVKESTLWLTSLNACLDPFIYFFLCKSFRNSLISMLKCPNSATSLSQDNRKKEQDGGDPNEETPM

For `CSc1nc(N)c2ncn([C@@H]3O[C@H](COP(=O)(O)OP(=O)(O)O)[C@@H](O)[C@H]3O)c2n1` [2-methylthio-ADP], at P2Y12 receptor (P2Y12R) [1], the midpoint of the response, the EC50, lay at 0.26 nM. In the case of `Nc1c(S(=O)(=O)O)cc(Nc2ccc(Nc3ccccc3)c(S(=O)(=O)O)c2)c2c1C(=O)c1ccccc1C2=O` [PSB-0739], the Kb on P2Y12 receptor (P2Y12R) [2] was 0.0794 nM.

Values taken from PMC4148180 (Neurobiology of Disease, 2014).
